According to US20180237441A1, “Chemical Compounds” (GlaxoSmithKline Intellectual Property (No.2) Limited, priority 2015, published 2018):
Like-named read-outs stand apart in the source and are kept apart here.

Molecular target: T1, PERK (Homo sapiens, UniProt Q9NZJ5)
T1 sequence (Q9NZJ5 30-1116): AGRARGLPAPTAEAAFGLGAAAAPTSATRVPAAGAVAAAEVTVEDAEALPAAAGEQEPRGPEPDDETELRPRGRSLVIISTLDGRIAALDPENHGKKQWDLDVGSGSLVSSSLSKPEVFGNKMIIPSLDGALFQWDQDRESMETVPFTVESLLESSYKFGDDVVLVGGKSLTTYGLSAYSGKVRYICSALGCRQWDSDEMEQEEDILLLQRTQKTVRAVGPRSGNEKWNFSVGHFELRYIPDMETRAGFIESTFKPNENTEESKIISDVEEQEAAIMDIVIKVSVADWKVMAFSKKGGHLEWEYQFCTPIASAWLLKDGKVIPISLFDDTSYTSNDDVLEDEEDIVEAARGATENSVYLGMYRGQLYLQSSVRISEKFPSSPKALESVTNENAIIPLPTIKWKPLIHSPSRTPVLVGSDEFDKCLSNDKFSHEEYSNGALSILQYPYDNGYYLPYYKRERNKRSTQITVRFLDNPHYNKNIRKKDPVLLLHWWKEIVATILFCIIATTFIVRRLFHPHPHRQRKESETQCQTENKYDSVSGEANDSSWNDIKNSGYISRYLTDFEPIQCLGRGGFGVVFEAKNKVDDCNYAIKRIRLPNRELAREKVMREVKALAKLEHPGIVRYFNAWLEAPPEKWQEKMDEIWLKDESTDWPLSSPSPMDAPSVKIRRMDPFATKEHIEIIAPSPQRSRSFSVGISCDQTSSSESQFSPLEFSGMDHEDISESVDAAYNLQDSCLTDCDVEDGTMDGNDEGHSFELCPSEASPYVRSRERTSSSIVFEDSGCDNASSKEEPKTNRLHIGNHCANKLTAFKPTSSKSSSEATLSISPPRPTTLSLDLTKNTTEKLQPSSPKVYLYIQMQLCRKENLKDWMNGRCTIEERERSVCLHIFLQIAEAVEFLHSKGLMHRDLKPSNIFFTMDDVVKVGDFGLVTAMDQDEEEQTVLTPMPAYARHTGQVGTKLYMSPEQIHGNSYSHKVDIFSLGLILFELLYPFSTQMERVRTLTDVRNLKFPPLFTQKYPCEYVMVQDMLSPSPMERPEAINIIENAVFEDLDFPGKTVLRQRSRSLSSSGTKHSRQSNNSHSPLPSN
Test: PERK enzyme assay (HTRF)
Type: biochemical
Settings: at least one experimental run
Procedure: Compounds of the invention were assayed for PERK enzyme inhibitory activity with modifications to previously reported conditions (Axten et al. J. Med. Chem., 2012, 55, 7193-7207). Briefly, various concentrations of compounds (maximum 1% DMSO) were dispensed into 384-well plates containing GST-PERK enzyme. After 30-60 minutes of compound pre-incubation, ATP and biotin-eIF2α were added and after 60 minutes the reaction was quenched. After 2 hrs, a fluorescence plate reader was used to measure inhibition and IC50s were calculated.
Enzyme Assay Protocol for PKR-Like Endoplasmic Reticulum Kinase (PERK)—HTRF —% Inhibition
Assay Buffer contains HEPES (pH7.5) 10 mM, CHAPS 2 mM, MgCl2 5 mM and DTT 1 mM in water
Detection Buffer contains HEPES (pH7.5) 10 mM and CHAPS 2 mM in water Assay Plate Preparation:
1. Enzyme Preparation: • 4× Enzyme solution was prepared immediately prior to adding to compound plates. • 3 nM of GST-PERK in Assay buffer. Final [PERK] in 10 μl assay volume=0.75 nM
2. Substrate Preparation: • 4× Substrate solution was prepared immediately prior to adding to compound plates. • 4× Substrate solution in assay buffer 2000 μM ATP and 160 nM Biotin-eIF2α • Final [ATP] in 10 μl assay volume=500 μM • Final [biotin-eIF2a] in 10 μl assay volume=40 nM.
3. Quench/Detection Solution: • 16 nM eIF2 Phospho-Antibody • 16 nM Eu anti-Rabbit IgG • 160 nM Streptavidin-APC • 60 mM EDTA • Final concentration in 10 μL assay volume: 4 nM eIF2 Phospho-Antibody, 4 nM Eu anti-Rabbit IgG 40 nM Streptavidin-APC
The activity of compounds in the PERK enzyme assay was determined at PERK Enzyme (500 μM ATP) IC50 (nM).

[1] = PERK Enzyme (500 μM ATP) IC50, read-out: PERK Activity

**Q.** Which IC50 [1] does the source give for `Cc1nc(N)c2c(-c3ccc(N4CC(c5ccc(F)cc5F)N(C)C4=O)cc3F)c(C)n(C)c2n1` (single isomer, unassigned) [Example 11, 1-(4-(4-amino-2,6,7-trimethyl-7H-pyrrolo[2,3-d]pyrimidin-5-yl)-3-fluorophenyl)-4-(2,4-difluorophenyl)-3-methylimidazolidin-2-one] here?
**A.** < 100 nM

**Q.** How did the IC50 [1] turn out when `CN1C(=O)N(c2ccc(-c3cn(C)c4ncnc(N)c34)c(F)c2)CC1c1ccc(F)c(Cl)c1` (single isomer, unassigned) [Example 133, 1-(4-(4-amino-7-methyl-7H-pyrrolo[2,3-d]pyrimidin-5-yl)-3-fluorophenyl)-4-(3-chloro-4-fluorophenyl)-3-methylimidazolidin-2-one] was run?
**A.** < 100 nM

**Q.** With `Cc1nc(C2CN(c3ccc(-c4cn(C)c5ncnc(N)c45)c(F)c3)C(=O)N2C)ccc1F` (stereo not shown) [Example 112, 1-(4-(4-amino-7-methyl-7H-pyrrolo[2,3-d]pyrimidin-5-yl)-3-fluorophenyl)-4-(5-fluoro-6-methylpyridin-2-yl)-3-methylimidazolidin-2-one] as the molecule, how does the IC50 [1] read?
**A.** 100 to 1000 nM

**Q.** How did the IC50 [1] turn out when `Cn1cc(-c2ccc(N3CC(c4cc(F)cc(F)c4)CC3=O)nc2)c2c(N)ncnc21` (stereo not shown) [Example 32, 1-(5-(4-amino-7-methyl-7H-pyrrolo[2,3-d]pyrimidin-5-yl)pyridin-2-yl)-4-(3,5-difluorophenyl)pyrrolidin-2-one] was run?
**A.** 100 to 1000 nM

**Q.** How did the IC50 [1] turn out when `CN1C(=O)N(c2ccc(-c3cn(C4CC4)c4ncnc(N)c34)c(F)c2)CC1c1cc(F)c(F)cc1F` (stereo not shown) [Example 157, 1-(4-(4-amino-7-cyclopropyl-7H-pyrrolo[2,3-d]pyrimidin-5-yl)-3-fluorophenyl)-3-methyl-4-(2,4,5-trifluorophenyl)imidazolidin-2-one] was run?
**A.** < 100 nM

**Q.** How did the IC50 [1] turn out when `Cc1cccc(C2CN(c3ccc(-c4cn(C)c5ncnc(N)c45)c(F)c3)C(=O)N2C)c1` (stereo not shown) [Example 39, 1-(4-(4-amino-7-methyl-7H-pyrrolo[2,3-d]pyrimidin-5-yl)-3-fluorophenyl)-3-methyl-4-(m-tolyl)imidazolidin-2-one] was run?
**A.** 100 to 1000 nM

**Q.** `CN1C(=O)N(c2ccc(-c3cn(C)c4ncnc(N)c34)c(F)c2)CC1c1cc(Cl)ccc1F` (stereo not shown) [Example 53, 1-(4-(4-amino-7-methyl-7H-pyrrolo[2,3-d]pyrimidin-5-yl)-3-fluorophenyl)-4-(5-chloro-2-fluorophenyl)-3-methylimidazolidin-2-one] was tested. Which IC50 [1] did it give?
**A.** 100 to 1000 nM

**Q.** `Cc1nc(N)c2c(-c3ccc(N4CC(c5ccc(Cl)nc5)N(C)C4=O)cc3F)cn(C)c2n1` (stereo not shown) [Example 135, 1-(4-(4-amino-2,7-dimethyl-7H-pyrrolo[2,3-d]pyrimidin-5-yl)-3-fluorophenyl)-4-(6-chloropyridin-3-yl)-3-methylimidazolidin-2-one] was tested. Which IC50 [1] did it give?
**A.** < 100 nM

**Q.** For `CN1C(=O)N(c2ccc(-c3cn(C4CC4)c4ncnc(N)c34)c(F)c2)CC1c1ccc(Cl)cc1` (stereo not shown) [Example 167, 1-(4-(4-amino-7-cyclopropyl-7H-pyrrolo[2,3-d]pyrimidin-5-yl)-3-fluorophenyl)-4-(4-chlorophenyl)-3-methylimidazolidin-2-one], which IC50 [1] is on record?
**A.** < 100 nM

**Q.** `Cc1nc(N)c2c(-c3ccc(N4CC(c5cc(F)cc(F)c5)N(C)C4=O)cc3F)cn(C)c2n1` (single isomer, unassigned) [Example 104, 1-(4-(4-amino-2,7-dimethyl-7H-pyrrolo[2,3-d]pyrimidin-5-yl)-3-fluorophenyl)-4-(3,5-difluorophenyl)-3-methylimidazolidin-2-one] was tested. Which IC50 [1] did it give?
**A.** < 100 nM

**Q.** How did the IC50 [1] turn out when `CN1C(=O)N(c2ccc(-c3cn(C4CC4)c4ncnc(N)c34)c(F)c2)CC1c1cccc(Cl)c1` (single isomer, unassigned) [Example 153, 1-(4-(4-amino-7-cyclopropyl-7H-pyrrolo[2,3-d]pyrimidin-5-yl)-3-fluorophenyl)-4-(3-chlorophenyl)-3-methylimidazolidin-2-one] was run?
**A.** 100 to 1000 nM

**Q.** Which IC50 [1] does the source give for `CN1C(=O)N(c2ccc(-c3cn(C)c4ncnc(N)c34)c(F)c2)CC1c1ccc2c(c1)CCO2` (stereo not shown) [Example 147, 1-(4-(4-amino-7-methyl-7H-pyrrolo[2,3-d]pyrimidin-5-yl)-3-fluorophenyl)-4-(2,3-dihydrobenzofuran-5-yl)-3-methylimidazolidin-2-one] here?
**A.** < 100 nM

**Q.** With `Cn1cc(-c2ccc(N3CC(c4cc(F)cc(F)c4)CC3=O)cc2F)c2c(N)ncnc21` (stereo not shown) [Example 4, 1-(4-(4-Amino-7-methyl-7H-pyrrolo[2,3-d]pyrimidin-5-yl)-3-fluorophenyl)-4-(3,5-difluorophenyl)pyrrolidin-2-one] as the molecule, how does the IC50 [1] read?
**A.** 100 to 1000 nM

**Q.** How did the IC50 [1] turn out when `CCN1C(=O)N(c2ccc(-c3c(C)n(C)c4ncnc(N)c34)c(F)c2)CC1c1ccc(F)cc1F` (stereo not shown) [Example 93, 1-(4-(4-amino-6,7-dimethyl-7H-pyrrolo[2,3-d]pyrimidin-5-yl)-3-fluorophenyl)-4-(2,4-difluorophenyl)-3-ethylimidazolidin-2-one] was run?
**A.** 100 to 1000 nM

**Q.** For `CN1C(=O)N(c2ccc(-c3cn(C4CC4)c4ncnc(N)c34)c(F)c2)CC1c1ccc(F)cc1F` (stereo not shown) [Example 108, 1-(4-(4-amino-7-cyclopropyl-7H-pyrrolo[2,3-d]pyrimidin-5-yl)-3-fluorophenyl)-4-(2,4-difluorophenyl)-3-methylimidazolidin-2-one], which IC50 [1] is on record?
**A.** < 100 nM

**Q.** `CN1C(=O)N(c2ccc(-c3cn(C)c4ncnc(N)c34)c(F)c2)CC1c1cc(F)ccc1F` (stereo not shown) [Example 18, 1-(4-(4-amino-7-methyl-7H-pyrrolo[2,3-d]pyrimidin-5-yl)-3-fluorophenyl)-4-(2,5-difluorophenyl)-3-methylimidazolidin-2-one] was tested. Which IC50 [1] did it give?
**A.** 100 to 1000 nM

**Q.** With `CCN1C(=O)N(c2ccc(-c3cn(C)c4nc(C)nc(N)c34)c(F)c2)CC1c1cc(F)ccc1F` (single isomer, unassigned) [Example 54, 1-(4-(4-amino-2,7-dimethyl-7H-pyrrolo[2,3-d]pyrimidin-5-yl)-3-fluorophenyl)-4-(2,5-difluorophenyl)-3-ethylimidazolidin-2-one] as the molecule, how does the IC50 [1] read?
**A.** < 100 nM

**Q.** With `Cc1nc(N)c2c(-c3ccc(N4CC(c5ccc(F)cc5F)N(C)C4=O)cc3F)cn(C)c2n1` (single isomer, unassigned) [Example 66, 1-(4-(4-amino-2,7-dimethyl-7H-pyrrolo[2,3-d]pyrimidin-5-yl)-3-fluorophenyl)-4-(2,4-difluorophenyl)-3-methylimidazolidin-2-one] as the molecule, how does the IC50 (500 μM ATP, read-out: PERK Enzyme (500 μM ATP) IC50) read?
**A.** 86.9 nM

**Q.** What about the IC50 [1] of the same molecule?
**A.** < 100 nM

**Q.** Which IC50 [1] does the source give for `CN1C(=O)N(c2ccc(-c3cn(C)c4ncnc(N)c34)c(F)c2)CC1c1ccc(F)cc1F` (stereo not shown) [Example 24, 1-(4-(4-amino-7-methyl-7H-pyrrolo[2,3-d]pyrimidin-5-yl)-3-fluorophenyl)-4-(2,4-difluorophenyl)-3-methylimidazolidin-2-one] here?
**A.** 100 to 1000 nM

**Q.** For `Cc1cc(N2CC(c3cc(F)cc(F)c3)N(C)C2=O)ccc1-c1cn(C)c2ncnc(N)c12` (stereo not shown) [Example 118, 1-(4-(4-amino-7-methyl-7H-pyrrolo[2,3-d]pyrimidin-5-yl)-3-methylphenyl)-4-(3,5-difluorophenyl)-3-methylimidazolidin-2-one], which IC50 [1] is on record?
**A.** < 100 nM

**Q.** For `Cc1cc(N2CC(c3cc(F)cc(F)c3)CC2=O)ccc1-c1cn(C)c2ncnc(N)c12` (stereo not shown) [Example 5, 1-(4-(4-Amino-7-methyl-7H-pyrrolo[2,3-d]pyrimidin-5-yl)-3-methylphenyl)-4-(3,5-difluorophenyl)pyrrolidin-2-one], which IC50 [1] is on record?
**A.** 100 to 1000 nM
